# Source: patent US20230227405A1, “5-OXOPYRROLIDINE-3-CARBOXAMIDES AS NAV1.8 INHIBITORS” (MERCK SHARP & DOHME CORP., priority 2020, published 2023)
# Target: T1, human Nav1.8 (Homo sapiens, UniProt Q9Y5Y9)
# T1 construct: expressed in transfected cells
# Test: Qube® automated patch-clamp assay, Nav1.8
# Type: cell-based
# Conditions: human Nav1.8 stably expressed in HEK 293 cells; whole-cell voltage clamp, room temperature; read-out: IC50 values (nM) for Examples in the Nav1.8 Qube® Assay
# Description: Compounds were tested on human Nav1.8 and Nav1.5 channels stably expressed in human embryo kidney (HEK) 293 cells. Sodium current measurements on Qube® were conducted as follows: automated 384-well patch-clamp assays on the Qube® platform (Sophion Biosciences) were used to measure the inhibition of sodium flow through human Nav1.8 and Nav1.5 channels. Whole-cell voltage-clamp recordings were performed in QChips® (Sophion Biosciences) at room temperature. Nav1.8 current measurements on Qube® were obtained as follows: Nav1.8 currents were elicited with a 10 second 1 Hertz (Hz) pulse train from a holding potential of −90 millivolts (mV), delivered to the cells once per minute in the control condition (DMSO only) and after compound addition. The 1 hertz pulse train stimulation consisted of ten test pulses to 10 millivolt (mV) for 20 milliseconds (ms), each of which was followed by a 980 millisecond repolarization to −67 millivolts. At the end of the 10 second pulse train stimulation, a 5 second hyperpolarization step to −100 millivolt (mV) was used to recover Nav1.8 from fast inactivation. The peak currents elicited by the 1st and 10th test pulses were used to determine IC50 values for resting inhibition and inactivated state inhibition. Nav1.5 current measurements on Qube® were obtained as follows: Nav1.5 currents were elicited with a 20 second 3 Hertz pulse train in the control condition (DMSO only) and after compound addition. The pulse train consisted of sixty 20 millisecond test pulses to 0 millivolt from a holding potential of −80 millivolt (mV). The average peak currents elicited by the last 3 test pulses were used to determine IC50 values for Nav1.5 inhibition.
# The following buffers were used for the Qube® recordings: External buffer for Nav1.8 Qube® recording: 150 NaCl, 2 CaCl2, 5 KCl, 1 Mg Cl2, 10 HEPES, 12 Dextrose; External buffer for Qube® Nav1.5 recording: 120 N-Methyl-D-Glucamine, 40 NaCl, 1 KCl, 2.7 CaCl2, 5 HEPES, 0.5 MgCl2; and Internal buffer for Qube® recording: 120 CsF, 30 CsCl, 10 EGTA, 5 HEPES, 5 NaF, 2 MgCl2.
# For all Qube® experiments offline analysis was used to determine percent inhibition as a function of drug concentration. IC50 values were determined by fitting to the Hill equation.
# T1 sequence (Q9Y5Y9 whole entry): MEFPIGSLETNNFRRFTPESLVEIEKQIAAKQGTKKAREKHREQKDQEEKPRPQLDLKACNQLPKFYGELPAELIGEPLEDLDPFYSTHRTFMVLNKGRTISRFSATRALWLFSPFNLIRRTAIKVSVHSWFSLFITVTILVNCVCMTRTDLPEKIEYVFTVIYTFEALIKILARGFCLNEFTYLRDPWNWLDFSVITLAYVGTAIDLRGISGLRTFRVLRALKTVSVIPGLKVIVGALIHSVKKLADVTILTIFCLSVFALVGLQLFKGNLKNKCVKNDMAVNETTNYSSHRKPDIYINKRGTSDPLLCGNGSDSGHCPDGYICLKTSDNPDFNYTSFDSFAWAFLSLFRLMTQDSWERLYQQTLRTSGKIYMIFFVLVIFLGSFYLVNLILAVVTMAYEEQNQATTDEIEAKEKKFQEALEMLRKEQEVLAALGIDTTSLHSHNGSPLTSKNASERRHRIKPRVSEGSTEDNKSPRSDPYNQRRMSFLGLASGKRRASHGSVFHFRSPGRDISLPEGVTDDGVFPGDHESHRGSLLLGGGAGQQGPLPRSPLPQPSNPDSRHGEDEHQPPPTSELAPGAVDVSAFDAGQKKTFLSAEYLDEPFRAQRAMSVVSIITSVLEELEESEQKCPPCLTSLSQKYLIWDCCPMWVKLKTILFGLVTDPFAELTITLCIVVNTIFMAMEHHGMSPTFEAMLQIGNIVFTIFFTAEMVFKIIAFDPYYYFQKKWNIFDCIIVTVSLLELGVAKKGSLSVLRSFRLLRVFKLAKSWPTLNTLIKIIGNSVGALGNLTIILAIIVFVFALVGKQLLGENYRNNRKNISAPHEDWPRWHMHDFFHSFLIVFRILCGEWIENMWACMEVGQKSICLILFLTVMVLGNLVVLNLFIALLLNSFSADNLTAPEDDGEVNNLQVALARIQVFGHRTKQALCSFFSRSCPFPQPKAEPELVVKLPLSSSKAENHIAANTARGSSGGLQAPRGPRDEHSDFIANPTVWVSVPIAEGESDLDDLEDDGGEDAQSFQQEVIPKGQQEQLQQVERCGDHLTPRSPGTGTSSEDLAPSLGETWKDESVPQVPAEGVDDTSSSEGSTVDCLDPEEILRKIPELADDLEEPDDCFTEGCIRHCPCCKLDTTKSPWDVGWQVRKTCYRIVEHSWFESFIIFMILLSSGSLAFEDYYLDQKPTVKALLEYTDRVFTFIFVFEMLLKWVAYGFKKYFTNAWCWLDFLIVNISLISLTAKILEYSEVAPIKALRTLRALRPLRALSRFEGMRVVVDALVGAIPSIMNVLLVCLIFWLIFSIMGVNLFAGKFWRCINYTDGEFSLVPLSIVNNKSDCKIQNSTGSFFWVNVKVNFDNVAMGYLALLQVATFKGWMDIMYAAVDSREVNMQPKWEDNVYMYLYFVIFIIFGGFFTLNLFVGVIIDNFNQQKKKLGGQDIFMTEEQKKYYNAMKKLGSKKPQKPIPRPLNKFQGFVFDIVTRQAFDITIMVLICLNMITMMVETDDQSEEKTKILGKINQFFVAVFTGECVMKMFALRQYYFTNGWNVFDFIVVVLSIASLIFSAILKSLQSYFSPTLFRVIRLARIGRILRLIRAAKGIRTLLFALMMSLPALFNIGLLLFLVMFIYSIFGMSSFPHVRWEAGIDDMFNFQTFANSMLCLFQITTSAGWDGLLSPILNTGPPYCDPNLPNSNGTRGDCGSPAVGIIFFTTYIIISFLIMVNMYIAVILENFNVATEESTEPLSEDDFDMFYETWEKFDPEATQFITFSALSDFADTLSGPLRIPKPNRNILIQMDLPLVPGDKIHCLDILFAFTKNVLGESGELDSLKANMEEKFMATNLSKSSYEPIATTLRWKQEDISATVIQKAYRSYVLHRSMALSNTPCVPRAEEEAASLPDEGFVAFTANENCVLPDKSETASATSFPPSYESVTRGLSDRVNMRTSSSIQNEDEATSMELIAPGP
row,Compound,IC50 [nM]
1,"O=C1C[C@H](C(=O)NC(c2ccc(Cl)cc2)c2ccc(F)c(C(F)(F)F)c2)CN1 (single isomer, unassigned) [Example 11B, (S)-N-((R or S)-(4-chlorophenyl)(4-fluoro-3-(trifluoromethyl)phenyl)methyl)-5-oxopyrrolidine-3-carboxamide]",17
2,"O=C1C[C@H](C(=O)NC(c2ccc(F)c(Cl)c2)c2ccc(F)c(Cl)c2)CN1 [Example 18, (S)-N-(bis(3-chloro-4-fluorophenyl)methyl)-5-oxopyrrolidine-3-carboxamide]",5.3
3,"O=C1C[C@H](C(=O)NC(c2ccc(C(F)(F)F)cc2)c2ccc(F)c(Cl)c2)CN1 (single isomer, unassigned) [Example 17, (S—N—((R or S)-(3-chloro-4-fluorophenyl)(4-(trifluoromethyl)phenyl)methyl)-5-oxopyrrolidine-3-carboxamide]",11
4,"O=C1C[C@H](C(=O)NC(c2ccc(C(F)(F)F)cc2)c2ccc(C(F)(F)F)cc2)CN1 [Example 9, (S)-N-(bis(4-(trifluoromethyl)phenyl)methyl)-5-oxopyrrolidine-3-carboxamide]",28
5,"O=C1C[C@H](C(=O)NC(c2ccc(Cl)cc2)c2ccc(C3CC3)cc2)CN1 (stereo partly drawn) [Example 3, (3S)-N-((4-chlorophenyl)(4-cyclopropylphenyl)methyl)-5-oxopyrrolidine-3-carboxamide]",186
6,"O=C1C[C@H](C(=O)NC(c2ccc(F)c(C(F)(F)F)c2)c2ccc(F)c(Cl)c2F)CN1 (stereo partly drawn) [Example 24, (3S)-N-((3-chloro-2,4-difluorophenyl)(4-fluoro-3-(trifluoromethyl)phenyl)methyl)-5-oxopyrrolidine-3-carboxamide]",5.5
7,"O=C1C[C@H](C(=O)NC(c2ccc(F)c(Cl)c2F)[C@H]2C[C@H](C(F)(F)F)C2)CN1 (single isomer, unassigned) [Example 16, (S—N—((R or S)-(3-chloro-2,4-difluorophenyl)((trans)-3-(trifluoromethyl)cyclobutyl)methyl)-5-oxopyrrolidine-3-carboxamide]",46
8,"O=C1C[C@H](C(=O)NC(c2cnc(C(F)(F)F)c(Cl)c2)c2ccc(F)c(Cl)c2F)CN1 (single isomer, unassigned) [Example 15, (S—N—((R or S)-(3-chloro-2,4-difluorophenyl)(5-chloro-6-(trifluoromethyl)pyridin-3-yl)methyl)-5-oxopyrrolidine-3-carboxamide]",4.2
9,"O=C1C[C@H](C(=O)NC(c2ccc(OC(F)(F)F)cc2)c2cccc(Cl)c2)CN1 (single isomer, unassigned) [Example 19B, (S)-N-((R or S)-(3-chlorophenyl)(4-(trifluoromethoxy)phenyl)methyl)-5-oxopyrrolidine-3-carboxamide]",17
10,"O=C1C[C@H](C(=O)NC(c2ccc(Cl)cc2)c2ccc(F)c(Cl)c2)CN1 (mixture of isomers) [Example 1B, (S—N—((R and S)-(3-chloro-4-fluorophenyl)(4-chlorophenyl)methyl)-5-oxopyrrolidine-3-carboxamide]",13
11,"O=C1C[C@H](C(=O)NC(COc2ccccc2)c2ccc(F)c(C(F)(F)F)c2)CN1 (stereo partly drawn) [Example 25, (3S)-N-(1-(4-fluoro-3-(trifluoromethyl)phenyl)-2-phenoxyethyl)-5-oxopyrrolidine-3-carboxamide]",53
12,"O=C1C[C@H](C(=O)NC(c2ccc(Cl)cc2)c2ccc(Cl)c(C(F)(F)F)c2)CN1 (single isomer, unassigned) [Example 14B, (S—N—((R or S)-(4-chloro-3-(trifluoro-methyl)phenyl)(4-chlorophenyl)methyl)-5-oxopyrrolidine-3-carboxamide]",9.4
13,"O=C1C[C@H](C(=O)NC(c2ccc(Cl)cc2)c2cc(F)cc(C(F)(F)F)c2)CN1 (stereo partly drawn) [Example 7, (3S)-N-((4-chlorophenyl)(3-fluoro-5-(trifluoromethyl)phenyl)methyl)-5-oxopyrrolidine-3-carboxamide]",186
14,"O=C1C[C@H](C(=O)NC(c2cccc(Cl)c2)c2cccc(OC(F)F)c2)CN1 (stereo partly drawn) [Example 6, (3S)-N-((3-chlorophenyl)(3-(difluoromethoxy)phenyl)methyl)-5-oxopyrrolidine-3-carboxamide]",520
15,"O=C1C[C@H](C(=O)NC(c2ccc(OC(F)(F)F)cc2)c2cccc(Cl)c2)CN1 (single isomer, unassigned) [Example 19A, (S)-N-((R or S)-(3-chlorophenyl)(4-(trifluoromethoxy)phenyl)methyl)-5-oxopyrrolidine-3-carboxamide]",16
16,"O=C1C[C@H](C(=O)NC(c2ccc(Cl)cc2)c2ccc(F)c(C(F)(F)F)c2)CN1 (single isomer, unassigned) [Example 11A, (S)-N-((R or S)-(4-chlorophenyl)(4-fluoro-3-(trifluoromethyl)phenyl)methyl)-5-oxopyrrolidine-3-carboxamide]",2.6
17,"N#Cc1cc(C(NC(=O)[C@@H]2CNC(=O)C2)c2ccc(F)c(Cl)c2)ccc1F (stereo partly drawn) [Example 22, (3S)—N-((3-chloro-4-fluorophenyl)(3-cyano-4-fluorophenyl)methyl)-5-oxopyrrolidine-3-carboxamide]",32
18,"N#Cc1cccc(C(NC(=O)[C@@H]2CNC(=O)C2)c2cccc(Cl)c2)c1 (stereo partly drawn) [Example 2, (3S)-N-((3-chlorophenyl)(3-cyanophenyl)methyl)-5-oxopyrrolidine-3-carboxamide]",820
19,"O=C1C[C@H](C(=O)NC(CCc2ccccc2)c2cccc(Cl)c2)CN1 (stereo partly drawn) [Example 26, (3S)-N-(1-(3-chlorophenyl)-3-phenylpropyl)-5-oxopyrrolidine-3-carboxamideNa]",435
20,"O=C1C[C@H](C(=O)NC(c2ccc(C(F)(F)F)cc2)c2cccc(C(F)(F)F)c2)CN1 (stereo partly drawn) [Example 8, (3S)-5-oxo-N-((3-(trifluoromethyl)phenyl)(4-(trifluoromethyl)phenyl)methyl)pyrrolidine-3-carboxamide]",19
21,"CC1(C)CC(C(NC(=O)[C@@H]2CNC(=O)C2)c2ccc(F)c(Cl)c2F)C1 (single isomer, unassigned) [Example 21A, (S—N—((R or S)-(3-chloro-2,4-difluorophenyl)(3,3-dimethylcyclobutyl)methyl)-5-oxopyrrolidine-3-carboxamide]",2220
22,"CC1C(=O)NCC1C(=O)NC(c1ccc(Cl)cc1)c1ccc(Cl)cc1 (single isomer, unassigned) [Example 27C, (3(R or S),4(R or S)—N-(bis(4-chlorophenyl)methyl)-4-methyl-5-oxopyrrolidine-3-carboxamide]",3480
23,"O=C1C[C@H](C(=O)NC(c2ccc(F)c(Cl)c2)c2ccc(Cl)c(C(F)(F)F)n2)CN1 (single isomer, unassigned) [Example 20A, (S)-N-((R or S)-(3-chloro-4-fluorophenyl)(5-chloro-6-(trifluoromethyl)-pyridin-2-yl)methyl)-5-oxopyrrolidine-3-carboxamide]",51
24,"O=C1C[C@H](C(=O)NC(c2ccc(Cl)cc2)c2ccc(F)c(Cl)c2)CN1 (single isomer, unassigned) [Example 1A, (S—N—((R or S)-(3-chloro-4-fluorophenyl)(4-chlorophenyl)methyl)-5-oxopyrrolidine-3-carboxamide]",3.4
25,"CC(C)c1ccc(C(NC(=O)[C@@H]2CNC(=O)C2)c2ccc(Cl)cc2)cc1 (stereo partly drawn) [Example 4, (3S)-N-((4-chlorophenyl)(4-isopropylphenyl)methyl)-5-oxopyrrolidine-3-carboxamide]",108
26,"COc1cc(Cl)ccc1C(NC(=O)[C@@H]1CNC(=O)C1)c1ccc(Cl)cc1 (stereo partly drawn) [Example 5, (3S)-N-((4-chloro-2-methoxyphenyl)(4-chlorophenyl)methyl)-5-oxopyrrolidine-3-carboxamide]",11
27,"O=C1C[C@H](C(=O)NC(c2ccc(Cl)cc2)c2ccc(Cl)c(C(F)(F)F)c2)CN1 (single isomer, unassigned) [Example 14A, (S—N—((R or S)-(4-chloro-3-(trifluoromethyl)phenyl)(4-chlorophenyl)methyl)-5-oxopyrrolidine-3-carboxamide]",1.2
28,"CC1(C)CC(C(NC(=O)[C@@H]2CNC(=O)C2)c2ccc(F)c(Cl)c2F)C1 (single isomer, unassigned) [Example 21B, (S—N—((R or S)-(3-chloro-2,4-difluorophenyl)(3,3-dimethylcyclobutyl)methyl)-5-oxopyrrolidine-3-carboxamide]",17
29,"N#Cc1ccc(C(NC(=O)[C@@H]2CNC(=O)C2)c2ccc(F)c(Cl)c2)cc1 (single isomer, unassigned) [Example 13B, (S)-N-((R or S)-(3-chloro-4-fluorophenyl)(4-cyanophenyl)methyl)-5-oxopyrrolidine-3-carboxamide]",129
